In brackets after ≈: the same amount, converted by molar mass. Where only a bound is given, the exact number is not on record here.

For one test, the system named is E. coli ATCC 25922. Kind of test: microbe, parasite or virus in culture. The following applies: for MIC: Escherichia coli, ATCC25922, read-out: MIC against E. coli ATCC 25922. As to the method:
(§1) MICs of OaBac5mini, amoxicillin, kanamycin, florfenicol and tetracycline were determined using the two-fold broth microdilution method according to the Clinical and Laboratory Standards Institute (CLSI) guidance ([21]). MIC values of the tested antibacterial agents were determined on three independent occasions. Escherichia coli ATCC 25922 was used as the quality control in all the susceptibility tests.

The test system of another test is S. aureus ATCC 25923. Kind of test: microbe, parasite or virus in culture. The following applies: for MIC: Staphylococcus aureus, ATCC25923, read-out: MIC against S. aureus ATCC 25923. As to the method:
as §1

The subject of a further test is E. coli 17. Put plainly: microbe, parasite or virus in culture. The following applies: for MIC: Escherichia coli, 17, read-out: MIC against E. coli 17.
Source text: (§2) The strains of E. coli ATCC 25922 and S. aureus ATCC 25923 were purchased from the American Type Culture Collection (ATCC, Manassas, VA, United States). The strains of E. coli W13, E. coli IF4, E. coli 2, and E. coli 17 were individually isolated from the livers of diseased chickens infected by E. coli. The strains of S. aureus B5, S. aureus B9, S. aureus B54, and S. aureus B63 were individually isolated from the milk of cows with mastitis. These clinical isolates were all identified by the VITEK-32 system (bioMérieux, France) and PCR amplification sequencing.
as §1

A further test has as its system E. coli 2. Kind of test: microbe, parasite or virus in culture. As to conditions: for MIC: Escherichia coli, 2, read-out: MIC against E. coli 2.
Source text: as §2, §1

In another test the test system is E. coli IF4. Put plainly: microbe, parasite or virus in culture. As to conditions: for MIC: Escherichia coli, IF4, read-out: MIC against E. coli IF4.
Source text: as §2, §1

The test system of a further test is E. coli W13. Put plainly: microbe, parasite or virus in culture. The following applies: for MIC: Escherichia coli, W13, read-out: MIC against E. coli W13.
Source text: as §2, §1

The subject of a further test is S. aureus B54. Kind of test: microbe, parasite or virus in culture. The following applies: for MIC: Staphylococcus aureus, B54, read-out: MIC against S. aureus B54.
Source text: as §2, §1

A further test has as its system S. aureus B5. Kind of test: microbe, parasite or virus in culture. The following applies: for MIC: Staphylococcus aureus, B5, read-out: MIC against S. aureus B5.
Source text: as §2, §1

The next test has as its system S. aureus B63. Kind of test: microbe, parasite or virus in culture. As to conditions: for MIC: Staphylococcus aureus, B63, read-out: MIC against S. aureus B63.
Source text: as §2, §1

In another test the test system is S. aureus B9. Kind of test: microbe, parasite or virus in culture. The following applies: for MIC: Staphylococcus aureus, B9, read-out: MIC against S. aureus B9.
Source text: as §2, §1

The next test has as its system E. coli ATCC 25922 ΔsbmA. The following applies: two-fold broth microdilution, CLSI; three independent occasions; sbmA deletion mutant. The method, then: The method described by Datsenko and Wanner was used for chromosomal gene deletion ([20]). […] The PCR fragment (1,567 bp) was purified, digested with DpnI, repurified and transferred into E. coli ATCC 25922 by electroporation, in which the Red recombinase expression plasmid pKD46 was previously transformed and induced by L-arabinose. Transformants were selected on Luria-Bertani (LB) agar containing 50 μg/ml of kanamycin at 37°C. The inserted sequence was amplified from the kanamycin-resistant strains by using the primers SBMF: 5′-[…]-3′ and SBMR: 5′-[…]-3′ which is located outside of inactivated gene. The length of the PCR product of sbmA using the primers set SBMF and SBMR in E. coli ATCC 25922 is 1,404 bp. When sbmA is successfully inactivated, the PCR product (2,198 bp) was amplified and sequenced for the verification of the gene deletion.
as §1
(In general: Broth dilution looks for growth in wells or tubes with falling amounts of substance.)

Where [1] appears, read: two-fold broth microdilution, CLSI, three independent occasions.
The mark [2] stands for this setting: two-fold broth microdilution, CLSI, three independent occasions, isolate from diseased chicken liver.
[3] abbreviates: two-fold broth microdilution, CLSI, three independent occasions, isolate from milk of cows with mastitis.

On to `NC[C@H]1O[C@H](O[C@H]2[C@H](O)[C@@H](O[C@H]3O[C@H](CO)[C@@H](O)[C@H](N)[C@H]3O)[C@H](N)C[C@@H]2N)[C@H](O)[C@@H](O)[C@@H]1O` [KAN, kanamycin], for which, in the test with E. coli ATCC 25922 (setting [1]), the “MIC against E. coli ATCC 25922” value was 4 µg/mL (≈ 8.26 µM). In addition, in the test on S. aureus ATCC 25923 (setting [1]), the “MIC against S. aureus ATCC 25923” value is 4 µg/mL (≈ 8.26 µM). In the test with E. coli 17 (setting [2]), the “MIC against E. coli 17” value was 320 µg/mL (≈ 660 µM). Further, the “MIC against E. coli 2” value against E. coli 2 (setting [2]) was >640 µg/mL. The “MIC against E. coli IF4” value against E. coli IF4 (setting [2]) was >640 µg/mL. For the same compound, the “MIC against E. coli W13” value in the test on E. coli W13 (setting [2]) was 320 µg/mL (≈ 660 µM). Further, in the test with S. aureus B54 (setting [3]), the “MIC against S. aureus B54” value was 5.83 µg/mL (≈ 12 µM). In addition, the “MIC against S. aureus B5” value in the test on S. aureus B5 (setting [3]) stood at 40 µg/mL (≈ 82.6 µM). Also, the “MIC against S. aureus B63” value in the test on S. aureus B63 (setting [3]) came out at 1.25 µg/mL (≈ 2.58 µM). For the same compound, the “MIC against S. aureus B9” value with S. aureus B9 (setting [3]) was 186.67 µg/mL (≈ 385 µM).

Take `CN(C)[C@@H]1C(O)=C(C(N)=O)C(=O)[C@@]2(O)C(O)=C3C(=O)c4c(O)cccc4[C@@](C)(O)[C@H]3C[C@@H]12` [TET, tetracycline]: the MIC in the test with E. coli ATCC 25922 stood at 2 µg/mL (≈ 4.5 µM); in the test on S. aureus ATCC 25923, 1 µg/mL (≈ 2.25 µM); in the test with E. coli 17, 160 µg/mL (≈ 360 µM); in the test on E. coli 2, 1 µg/mL (≈ 2.25 µM); with E. coli IF4, 133 µg/mL (≈ 300 µM); with E. coli W13, 160 µg/mL (≈ 360 µM). The MIC turned out to be 66.7 µg/mL (≈ 150 µM) in the test with S. aureus B54, 0.08 µg/mL (≈ 0.18 µM) in the test with S. aureus B5, 0.42 µg/mL (≈ 0.945 µM) with S. aureus B63 and 80 µg/mL (≈ 180 µM) with S. aureus B9. Besides, the “MIC against E. coli ATCC 25922 ΔsbmA” value with E. coli ATCC 25922 ΔsbmA came out at 1.67 µg/mL (≈ 3.76 µM).

On to `CS(=O)(=O)c1ccc([C@@H](O)[C@@H](CF)NC(=O)C(Cl)Cl)cc1` [FLO, florfenicol], for which the MIC in the test on E. coli ATCC 25922 stood at 4 µg/mL (≈ 11.2 µM); in the test with S. aureus ATCC 25923, 16 µg/mL (≈ 44.7 µM); with E. coli 17, 80 µg/mL (≈ 223 µM); in the test on E. coli 2, 267 µg/mL (≈ 744 µM); with E. coli IF4 it was 80 µg/mL (≈ 223 µM); with E. coli W13, 320 µg/mL (≈ 893 µM). Besides, the MIC with S. aureus B54 came out at 2.5 µg/mL (≈ 6.98 µM); in the test on S. aureus B5 it was 4.17 µg/mL (≈ 11.6 µM); with S. aureus B63, 1.04 µg/mL (≈ 2.9 µM); with S. aureus B9, 1.67 µg/mL (≈ 4.66 µM). Moreover, the “MIC against E. coli ATCC 25922 ΔsbmA” value against E. coli ATCC 25922 ΔsbmA stood at 5.3 µg/mL (≈ 14.8 µM).

`CC1(C)S[C@@H]2[C@H](NC(=O)[C@H](N)c3ccc(O)cc3)C(=O)N2[C@H]1C(=O)O` [AMO, amoxicillin]: the MIC in the test with E. coli ATCC 25922 was 8 µg/mL (≈ 21.9 µM); in the test on S. aureus ATCC 25923 it was 0.67 µg/mL (≈ 1.83 µM); with E. coli 17, > 640 µg/mL; in the test on E. coli 2, > 640 µg/mL; in the test on E. coli IF4 it was > 640 µg/mL; in the test on E. coli W13 it was > 640 µg/mL. For the same compound, the MIC in the test on S. aureus B54 is 3.33 µg/mL (≈ 9.11 µM); in the test on S. aureus B5, 427 µg/mL (≈ 1170 µM); in the test on S. aureus B63 it was 2.08 µg/mL (≈ 5.69 µM); with S. aureus B9, 3.33 µg/mL (≈ 9.11 µM). Also, the “MIC against E. coli ATCC 25922 ΔsbmA” value against E. coli ATCC 25922 ΔsbmA came to 8 µg/mL (≈ 21.9 µM).

(Values after paper PMC9995905, “Characteristics of antimicrobial peptide OaBac5mini and its bactericidal mechanism against Escherichia coli” (Frontiers in Veterinary Science, 2023).)
